In US4248887A, “Antibacterial compounds, processes for their preparation and compositions containing them” (priority 1978, dated 1981):
≈ marks a conversion by molar mass, not a printed value.

How the values were obtained:
N. catarrhalis 1502 = assay: MIC by serial dilution in nutrient agar (human bacteria); conditions: Neisseria
M. dispar H225 = assay: Anti-mycoplasma MIC; assay type: cell-based
Strep. agalactiae SPA1 = assay: MIC against veterinary bacteria; conditions: Streptococcus agalactiae
[1] = tested on: Staph. aureus B4 (pen resistant); assay: MIC against veterinary bacteria; conditions: Staphylococcus aureus
Past. multocida PA2 = assay: MIC against veterinary bacteria; conditions: Pasteurella multocida
M. hyorhinis ATCC 23234 = assay: Anti-mycoplasma MIC; assay type: cell-based; conditions: Mesomycoplasma hyorhinis, ATCC23234
[2] = tested on: M. suipneumoniae J2206/183b; assay: Anti-mycoplasma MIC; assay type: cell-based; conditions: Mesomycoplasma hyopneumoniae, J2206/183B
M. fermentans MWKL4 = assay: Anti-mycoplasma MIC; assay type: cell-based; conditions: Mycoplasmopsis fermentans
Past. multocida 1633 = assay: MIC by serial dilution in nutrient agar (human bacteria); conditions: Pasteurella multocida
Past. multocida PA1 = assay: MIC against veterinary bacteria; conditions: Pasteurella multocida
M. bovis ATCC 25025 = assay: microbe, parasite or virus in culture; assay type: cell-based; conditions: ATCC25025
Staph. aureus Russell = assay: MIC by serial dilution in nutrient agar (human bacteria); conditions: Staphylococcus aureus
Strep. pneumoniae CN33 = assay: as above; conditions: Streptococcus pneumoniae
Strep. dysgalactiae SPD1 = assay: MIC against veterinary bacteria; conditions: Streptococcus dysgalactiae
Strep. pyogenes C 2761 = assay: MIC by serial dilution in nutrient agar (human bacteria); conditions: Streptococcus pyogenes, C2761
[3] = tested on: M. bovigenitalium ATCC 14173; assay: Anti-mycoplasma MIC; assay type: cell-based
M. suipneumoniae Str. 11 = assay: Anti-mycoplasma MIC; assay type: cell-based; conditions: Mesomycoplasma hyopneumoniae, STR.11
Strep. pyogenes A 64/848 = assay: MIC by serial dilution in nutrient agar (human bacteria); conditions: Streptococcus pyogenes, A64/848
Bord. bronchiseptica BO9 = assay: MIC against veterinary bacteria; conditions: Bordetella bronchiseptica
M. pneumoniae ATCC 15492 = assay: Anti-mycoplasma MIC; assay type: cell-based; conditions: Mycoplasmoides pneumoniae, ATCC15492, M. pneumoniae ATCC 15492
H. influenzae Wy21 = assay: MIC by serial dilution in nutrient agar (human bacteria); conditions: Haemophilus influenzae
Strep. uberis SPU1 = assay: MIC against veterinary bacteria; conditions: Streptococcus uberis
H. influenzae Q1 = assay: MIC by serial dilution in nutrient agar (human bacteria); conditions: Haemophilus influenzae
B. subtilis = assay: as above; conditions: Bacillus subtilis
[4] = tested on: M. hyosynoviae ATCC 25591; assay: Anti-mycoplasma MIC; assay type: cell-based
Bord. bronchiseptica BO8 = assay: MIC against veterinary bacteria; conditions: Bordetella bronchiseptica
Strep. pyogenes B 2788 = assay: MIC by serial dilution in nutrient agar (human bacteria); conditions: Streptococcus pyogenes, B2788
[5] = tested on: M. arthritidis ATCC 14124; assay: Anti-mycoplasma MIC; assay type: cell-based
Past. haemolytica PA5 = assay: MIC against veterinary bacteria; conditions: Mannheimia haemolytica
M. bovis NCTC 10131 = assay: microbe, parasite or virus in culture; assay type: cell-based; conditions: NCTC10131
M. synoviae ATCC 25204 = assay: Anti-mycoplasma MIC; assay type: cell-based; conditions: Mycoplasmopsis synoviae, ATCC25204
M. pneumoniae 427a = assay: Anti-mycoplasma MIC; assay type: cell-based; conditions: Mycoplasmoides pneumoniae
[6] = tested on: M. alkalescens NCTC 10135; assay: Anti-mycoplasma MIC; assay type: cell-based
Staph. aureus Oxford = assay: MIC by serial dilution in nutrient agar (human bacteria); conditions: Staphylococcus aureus
M. dispar NCTC 10125 = assay: Anti-mycoplasma MIC; assay type: cell-based
M. gallisepticum S6 = assay: Anti-mycoplasma MIC; assay type: cell-based; conditions: Mycoplasmoides gallisepticum, S6
Staph. aureus 1517 = assay: MIC by serial dilution in nutrient agar (human bacteria); assay type: cell-based; conditions: Staphylococcus aureus
M. pulmonis JB = assay: Anti-mycoplasma MIC; assay type: cell-based; conditions: Mycoplasmopsis pulmonis
[7] = Agar (serial dilution in Friis' agar)
[8] = Broth (Friis' broth, microtiter method)

Structure (SMILES): CCOC(=O)/C=C(\C)CC1OCC(C/C=C/C(C)C(C)O)C(O)C1O (stereo not drawn) [Ethyl, Ethyl Monate C]
- MIC (N. catarrhalis 1502): 0.2 µg/mL (≈ 0.561 µM)
- MIC (M. dispar H225): 0.078 µg/mL (≈ 0.219 µM)
- MIC (Strep. agalactiae SPA1): 20 µg/mL (≈ 56.1 µM)
- MIC [1]: 1.25 µg/mL (≈ 3.51 µM)
- MIC (Past. multocida PA2): 5 µg/mL (≈ 14 µM)
- MIC (M. hyorhinis ATCC 23234): 2.5 µg/mL (≈ 7.01 µM)
- MIC [2]: 10 µg/mL (≈ 28.1 µM)
- MIC (M. fermentans MWKL4; [7]): 0.312 µg/mL (≈ 0.875 µM)
- MIC (M. fermentans MWKL4; [8]): 0.156 µg/mL (≈ 0.438 µM)
- MIC (Past. multocida 1633): 5 µg/mL (≈ 14 µM)
- MIC (Past. multocida PA1): 5 µg/mL (≈ 14 µM)
- MIC (M. bovis ATCC 25025): 0.156 µg/mL (≈ 0.438 µM)
- MIC (Staph. aureus Russell): 0.2 µg/mL (≈ 0.561 µM)
- MIC (Strep. pneumoniae CN33): 2.5 µg/mL (≈ 7.01 µM)
- MIC (Strep. dysgalactiae SPD1): 20 µg/mL (≈ 56.1 µM)
- MIC (Strep. pyogenes C 2761): 5 µg/mL (≈ 14 µM)
- MIC [3]: 0.078 µg/mL (≈ 0.219 µM)
- MIC (M. suipneumoniae Str. 11): 1.25 µg/mL (≈ 3.51 µM)
- MIC (Strep. pyogenes A 64/848): 10 µg/mL (≈ 28.1 µM)
- MIC (Bord. bronchiseptica BO9): 40 µg/mL (≈ 112 µM)
- MIC (M. pneumoniae ATCC 15492; [7]): 5 µg/mL (≈ 14 µM)
- MIC (M. pneumoniae ATCC 15492; [8]): 10 µg/mL (≈ 28.1 µM)
- MIC (H. influenzae Wy21): 1 µg/mL (≈ 2.81 µM)
- MIC (Strep. uberis SPU1): 5 µg/mL (≈ 14 µM)
- MIC (H. influenzae Q1): 0.2 µg/mL (≈ 0.561 µM)
- MIC (B. subtilis): 1 µg/mL (≈ 2.81 µM)
- MIC [4]: 1.25 µg/mL (≈ 3.51 µM)
- MIC (Bord. bronchiseptica BO8): > 80 µg/mL
- MIC (Strep. pyogenes B 2788): 0.5 µg/mL (≈ 1.4 µM)
- MIC [5]: > 10 µg/mL
- MIC (Past. haemolytica PA5): 40 µg/mL (≈ 112 µM)
- MIC (M. bovis NCTC 10131): 0.156 µg/mL (≈ 0.438 µM)
- MIC (M. synoviae ATCC 25204): 0.039 µg/mL (≈ 0.109 µM)
- MIC (M. pneumoniae 427a; [7]): 5 µg/mL (≈ 14 µM)
- MIC (M. pneumoniae 427a; [8]): 10 µg/mL (≈ 28.1 µM)
- MIC [6]: 0.039 µg/mL (≈ 0.109 µM)
- MIC (Staph. aureus Oxford): 0.2 µg/mL (≈ 0.561 µM)
- MIC (M. dispar NCTC 10125): 0.156 µg/mL (≈ 0.438 µM)
- MIC (M. gallisepticum S6): > 10 µg/mL
- MIC (Staph. aureus 1517): 0.2 µg/mL (≈ 0.561 µM)
- MIC (M. pulmonis JB; [7]): 0.039 µg/mL (≈ 0.109 µM)
- MIC (M. pulmonis JB; [8]): 0.156 µg/mL (≈ 0.438 µM)

Structure (SMILES): COC(=O)/C=C(\C)CC1OCC(C/C=C/C(C)C(C)O)C(O)C1O (stereo not drawn) [Methyl, Methyl Monate C]
- MIC (N. catarrhalis 1502): 1 µg/mL (≈ 2.92 µM)
- MIC (M. dispar H225): 0.625 µg/mL (≈ 1.83 µM)
- MIC (M. hyorhinis ATCC 23234): 1.25 µg/mL (≈ 3.65 µM)
- MIC [2]: 2.5 µg/mL (≈ 7.3 µM)
- MIC (M. fermentans MWKL4; [7]): 0.625 µg/mL (≈ 1.83 µM)
- MIC (M. fermentans MWKL4; [8]): 0.312 µg/mL (≈ 0.911 µM)
- MIC (Past. multocida 1633): 10 µg/mL (≈ 29.2 µM)
- MIC (M. bovis ATCC 25025): 0.312 µg/mL (≈ 0.911 µM)
- MIC (Staph. aureus Russell): 2.5 µg/mL (≈ 7.3 µM)
- MIC (Strep. pneumoniae CN33): 25 µg/mL (≈ 73 µM)
- MIC (Strep. pyogenes C 2761): > 100 µg/mL
- MIC [3]: 0.156 µg/mL (≈ 0.456 µM)
- MIC (M. suipneumoniae Str. 11): 2.5 µg/mL (≈ 7.3 µM)
- MIC (Strep. pyogenes A 64/848): > 100 µg/mL
- MIC (M. pneumoniae ATCC 15492; [7]): > 10 µg/mL
- MIC (M. pneumoniae ATCC 15492; [8]): 10 µg/mL (≈ 29.2 µM)
- MIC (H. influenzae Wy21): 2.5 µg/mL (≈ 7.3 µM)
- MIC (H. influenzae Q1): 1 µg/mL (≈ 2.92 µM)
- MIC (B. subtilis): 2.5 µg/mL (≈ 7.3 µM)
- MIC [4]: 5 µg/mL (≈ 14.6 µM)
- MIC (Strep. pyogenes B 2788): 25 µg/mL (≈ 73 µM)
- MIC [5]: > 10 µg/mL
- MIC (M. bovis NCTC 10131): 0.312 µg/mL (≈ 0.911 µM)
- MIC (M. synoviae ATCC 25204): 0.156 µg/mL (≈ 0.456 µM)
- MIC (M. pneumoniae 427a; [7]): > 10 µg/mL
- MIC (M. pneumoniae 427a; [8]): > 10 µg/mL
- MIC [6]: 0.156 µg/mL (≈ 0.456 µM)
- MIC (Staph. aureus Oxford): 1 µg/mL (≈ 2.92 µM)
- MIC (M. dispar NCTC 10125): 0.312 µg/mL (≈ 0.911 µM)
- MIC (M. gallisepticum S6): > 10 µg/mL
- MIC (Staph. aureus 1517): 2.5 µg/mL (≈ 7.3 µM)
- MIC (M. pulmonis JB; [7]): 0.312 µg/mL (≈ 0.911 µM)
- MIC (M. pulmonis JB; [8]): 0.156 µg/mL (≈ 0.456 µM)
